Results taken from the kinase profiling compilation of Christmann-Franck et al. (2016).

What was measured:
[1] = target: CSNK1D (human) (UniProt P48730)
[2] = test system: LCK (mouse); details: accession and sequence are those of the human protein
[3] = target: PLK1 (human) (UniProt P53350)
[4] = target: AAK1 (human) (UniProt Q2M2I8); assay: KINOMEscan competition binding; details: compound 10.0 µM
[5] = target: ANKK1 (human) (UniProt Q8NFD2); assay: KINOMEscan competition binding; details: compound 10.0 µM
[6] = target: BLK (human) (UniProt P51451); assay: KINOMEscan competition binding; details: compound 10.0 µM
[7] = target: BMX (human) (UniProt P51813); assay: KINOMEscan competition binding; details: compound 10.0 µM
[8] = target: CASK (human) (UniProt O14936); assay: KINOMEscan competition binding; details: compound 10.0 µM
[9] = target: CDK2 (human) (UniProt P24941); assay: KINOMEscan competition binding; details: compound 10.0 µM
[10] = target: CDK4 CCND1 (human) (UniProt P11802+P24385); assay: KINOMEscan competition binding; details: compound 10.0 µM
[11] = target: CHEK1 (human) (UniProt O14757); assay: KINOMEscan competition binding; details: compound 10.0 µM
[12] = target: CLK4 (human) (UniProt Q9HAZ1); assay: KINOMEscan competition binding; details: compound 10.0 µM
[13] = target: DDR1 (human) (UniProt Q08345); assay: KINOMEscan competition binding; details: compound 10.0 µM
[14] = target: EIF2AK1 (human) (UniProt Q9BQI3); assay: KINOMEscan competition binding; details: compound 10.0 µM
[15] = target: EPHA5 (human) (UniProt P54756); assay: KINOMEscan competition binding; details: compound 10.0 µM
EPHA5 (human), sequence (P54756 whole entry, looked up): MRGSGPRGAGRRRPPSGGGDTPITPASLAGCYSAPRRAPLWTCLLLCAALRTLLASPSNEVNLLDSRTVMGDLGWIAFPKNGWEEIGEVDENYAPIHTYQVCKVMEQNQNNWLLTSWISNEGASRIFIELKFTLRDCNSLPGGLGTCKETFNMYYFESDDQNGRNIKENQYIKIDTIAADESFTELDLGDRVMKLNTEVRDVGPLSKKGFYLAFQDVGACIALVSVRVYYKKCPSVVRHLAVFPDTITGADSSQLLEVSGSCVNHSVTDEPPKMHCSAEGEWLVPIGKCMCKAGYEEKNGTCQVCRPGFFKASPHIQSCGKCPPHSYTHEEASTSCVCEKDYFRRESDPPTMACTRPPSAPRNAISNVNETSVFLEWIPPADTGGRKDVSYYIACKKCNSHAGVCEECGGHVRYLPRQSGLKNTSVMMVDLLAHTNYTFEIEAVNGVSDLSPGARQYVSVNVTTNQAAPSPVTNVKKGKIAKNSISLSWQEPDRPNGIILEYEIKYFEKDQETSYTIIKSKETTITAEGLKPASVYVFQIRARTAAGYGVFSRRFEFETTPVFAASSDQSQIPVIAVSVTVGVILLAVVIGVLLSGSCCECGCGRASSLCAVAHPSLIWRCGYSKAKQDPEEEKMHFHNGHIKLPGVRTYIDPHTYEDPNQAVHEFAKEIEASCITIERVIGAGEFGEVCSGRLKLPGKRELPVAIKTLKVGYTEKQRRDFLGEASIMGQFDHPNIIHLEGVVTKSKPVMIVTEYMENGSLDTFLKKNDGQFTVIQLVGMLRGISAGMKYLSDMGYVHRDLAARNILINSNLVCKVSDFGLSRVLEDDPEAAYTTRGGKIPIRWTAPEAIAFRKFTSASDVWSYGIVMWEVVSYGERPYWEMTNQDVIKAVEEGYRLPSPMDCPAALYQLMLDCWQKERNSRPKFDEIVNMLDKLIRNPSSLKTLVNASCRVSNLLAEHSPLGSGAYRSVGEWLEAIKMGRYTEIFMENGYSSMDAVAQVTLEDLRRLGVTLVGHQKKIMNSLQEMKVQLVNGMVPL

[16] = target: EPHA8 (human) (UniProt P29322); assay: KINOMEscan competition binding; details: compound 10.0 µM
[17] = target: HCK (human) (UniProt P08631); assay: KINOMEscan competition binding; details: compound 10.0 µM
[18] = target: HIPK2 (human) (UniProt Q9H2X6); assay: KINOMEscan competition binding; details: compound 10.0 µM
[19] = target: IRAK4 (human) (UniProt Q9NWZ3); assay: KINOMEscan competition binding; details: compound 10.0 µM
[20] = target: LTK (human) (UniProt P29376); assay: KINOMEscan competition binding; details: compound 10.0 µM
LTK (human), sequence (P29376 whole entry, looked up): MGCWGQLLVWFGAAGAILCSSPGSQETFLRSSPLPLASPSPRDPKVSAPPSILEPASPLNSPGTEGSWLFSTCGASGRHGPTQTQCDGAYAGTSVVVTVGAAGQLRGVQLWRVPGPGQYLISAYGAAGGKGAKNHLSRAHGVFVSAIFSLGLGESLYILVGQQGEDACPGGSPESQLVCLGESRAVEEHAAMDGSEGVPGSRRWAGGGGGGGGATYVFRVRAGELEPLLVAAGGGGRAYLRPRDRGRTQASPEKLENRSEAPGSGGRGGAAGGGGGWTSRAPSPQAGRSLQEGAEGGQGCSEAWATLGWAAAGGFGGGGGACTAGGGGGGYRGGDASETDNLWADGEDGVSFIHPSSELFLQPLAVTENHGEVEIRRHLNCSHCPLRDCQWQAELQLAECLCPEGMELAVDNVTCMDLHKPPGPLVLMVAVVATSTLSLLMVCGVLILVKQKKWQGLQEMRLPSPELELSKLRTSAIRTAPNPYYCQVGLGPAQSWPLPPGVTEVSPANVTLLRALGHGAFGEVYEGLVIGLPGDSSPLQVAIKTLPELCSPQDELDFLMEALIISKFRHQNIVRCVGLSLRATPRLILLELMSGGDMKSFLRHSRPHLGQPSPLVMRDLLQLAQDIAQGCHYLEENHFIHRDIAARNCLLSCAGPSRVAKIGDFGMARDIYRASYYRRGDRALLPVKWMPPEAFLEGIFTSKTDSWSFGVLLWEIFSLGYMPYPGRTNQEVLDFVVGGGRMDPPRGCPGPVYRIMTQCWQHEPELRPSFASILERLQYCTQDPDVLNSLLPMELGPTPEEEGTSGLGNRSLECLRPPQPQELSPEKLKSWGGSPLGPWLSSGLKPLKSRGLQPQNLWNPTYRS

[21] = target: MAK (human) (UniProt P20794); assay: KINOMEscan competition binding; details: compound 10.0 µM
[22] = target: MAP2K4 (human) (UniProt P45985); assay: KINOMEscan competition binding; details: compound 10.0 µM
[23] = target: MAP2K5 (human) (UniProt Q13163); assay: KINOMEscan competition binding; details: compound 10.0 µM
[24] = target: MAP3K10 (human) (UniProt Q02779); assay: KINOMEscan competition binding; details: compound 10.0 µM
[25] = target: MAPK3 (human) (UniProt P27361); assay: KINOMEscan competition binding; details: compound 10.0 µM
[26] = target: MERTK (human) (UniProt Q12866); assay: KINOMEscan competition binding; details: compound 10.0 µM
[27] = target: NEK11 (human) (UniProt Q8NG66); assay: KINOMEscan competition binding; details: compound 10.0 µM
[28] = target: NUAK1 (human) (UniProt O60285); assay: KINOMEscan competition binding; details: compound 10.0 µM
[29] = target: PAK3 (human) (UniProt O75914); assay: KINOMEscan competition binding; details: compound 10.0 µM
[30] = target: PRKCI (human) (UniProt P41743); assay: KINOMEscan competition binding; details: compound 10.0 µM
PRKCI (human), sequence (P41743 whole entry, looked up): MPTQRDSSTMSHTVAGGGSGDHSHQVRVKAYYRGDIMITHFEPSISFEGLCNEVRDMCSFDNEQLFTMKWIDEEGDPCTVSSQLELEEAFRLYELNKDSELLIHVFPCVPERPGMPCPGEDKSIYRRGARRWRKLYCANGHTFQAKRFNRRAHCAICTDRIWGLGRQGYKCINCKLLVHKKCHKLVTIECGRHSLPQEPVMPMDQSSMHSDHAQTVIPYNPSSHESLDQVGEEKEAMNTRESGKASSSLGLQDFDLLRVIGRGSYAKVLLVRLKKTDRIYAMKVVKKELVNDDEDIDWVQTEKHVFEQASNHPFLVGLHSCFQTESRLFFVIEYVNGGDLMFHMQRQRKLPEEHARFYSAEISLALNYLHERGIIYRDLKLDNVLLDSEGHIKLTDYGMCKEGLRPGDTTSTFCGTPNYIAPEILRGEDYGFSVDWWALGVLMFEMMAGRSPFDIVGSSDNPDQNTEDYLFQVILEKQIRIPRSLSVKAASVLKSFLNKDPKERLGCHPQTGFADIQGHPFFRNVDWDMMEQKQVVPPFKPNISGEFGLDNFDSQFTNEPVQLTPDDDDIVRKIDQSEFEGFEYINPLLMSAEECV

[31] = target: RET (human) (UniProt P07949); assay: KINOMEscan competition binding; details: compound 10.0 µM
[32] = target: RPS6KA5 KD2 (human) (UniProt O75582); assay: KINOMEscan competition binding; details: compound 10.0 µM
[33] = target: SBK1 (human) (UniProt Q52WX2); assay: KINOMEscan competition binding; details: compound 10.0 µM
[34] = target: SGK110 (human) (UniProt P0C264); assay: KINOMEscan competition binding; details: compound 10.0 µM
[35] = target: STK38 (human) (UniProt Q15208); assay: KINOMEscan competition binding; details: compound 10.0 µM
STK38 (human), sequence (Q15208 whole entry, looked up): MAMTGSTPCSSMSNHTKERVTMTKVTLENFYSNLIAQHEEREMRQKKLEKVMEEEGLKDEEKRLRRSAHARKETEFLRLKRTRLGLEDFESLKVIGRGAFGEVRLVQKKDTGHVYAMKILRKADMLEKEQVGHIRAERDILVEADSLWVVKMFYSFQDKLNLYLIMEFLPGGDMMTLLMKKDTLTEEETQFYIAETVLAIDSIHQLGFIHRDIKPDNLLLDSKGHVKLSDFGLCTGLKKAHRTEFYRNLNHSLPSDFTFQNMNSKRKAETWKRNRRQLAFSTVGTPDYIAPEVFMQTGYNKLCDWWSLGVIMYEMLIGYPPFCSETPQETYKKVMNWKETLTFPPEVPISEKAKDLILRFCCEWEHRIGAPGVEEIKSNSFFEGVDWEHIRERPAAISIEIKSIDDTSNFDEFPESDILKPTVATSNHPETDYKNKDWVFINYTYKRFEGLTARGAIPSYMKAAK

[36] = target: STK38L (human) (UniProt Q9Y2H1); assay: KINOMEscan competition binding; details: compound 10.0 µM
[37] = target: TBK1 (human) (UniProt Q9UHD2); assay: KINOMEscan competition binding; details: compound 10.0 µM
[38] = target: TIE1 (human) (UniProt P35590); assay: KINOMEscan competition binding; details: compound 10.0 µM
[39] = target: TLK1 (human) (UniProt Q9UKI8); assay: KINOMEscan competition binding; details: compound 10.0 µM
[40] = target: TYK2 JH1 catalytic (human) (UniProt P29597); assay: KINOMEscan competition binding; details: compound 10.0 µM

PLK1 (human), sequence (P53350 whole entry, looked up): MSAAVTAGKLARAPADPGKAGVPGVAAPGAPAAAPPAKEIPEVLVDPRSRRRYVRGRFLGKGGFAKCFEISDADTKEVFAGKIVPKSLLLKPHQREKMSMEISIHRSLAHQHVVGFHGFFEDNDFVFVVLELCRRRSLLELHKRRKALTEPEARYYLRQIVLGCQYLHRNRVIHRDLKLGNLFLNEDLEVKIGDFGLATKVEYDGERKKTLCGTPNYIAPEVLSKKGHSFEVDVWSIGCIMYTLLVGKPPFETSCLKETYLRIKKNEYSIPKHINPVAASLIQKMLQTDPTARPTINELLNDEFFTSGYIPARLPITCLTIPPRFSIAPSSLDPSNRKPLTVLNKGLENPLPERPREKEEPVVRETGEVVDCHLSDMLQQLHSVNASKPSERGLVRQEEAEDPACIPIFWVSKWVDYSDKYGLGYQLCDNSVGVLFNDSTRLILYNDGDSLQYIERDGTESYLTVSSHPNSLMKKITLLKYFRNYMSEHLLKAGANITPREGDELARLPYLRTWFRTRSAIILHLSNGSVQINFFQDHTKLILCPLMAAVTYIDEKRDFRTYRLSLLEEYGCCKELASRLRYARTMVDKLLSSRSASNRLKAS
CSNK1D (human), sequence (P48730 whole entry, looked up): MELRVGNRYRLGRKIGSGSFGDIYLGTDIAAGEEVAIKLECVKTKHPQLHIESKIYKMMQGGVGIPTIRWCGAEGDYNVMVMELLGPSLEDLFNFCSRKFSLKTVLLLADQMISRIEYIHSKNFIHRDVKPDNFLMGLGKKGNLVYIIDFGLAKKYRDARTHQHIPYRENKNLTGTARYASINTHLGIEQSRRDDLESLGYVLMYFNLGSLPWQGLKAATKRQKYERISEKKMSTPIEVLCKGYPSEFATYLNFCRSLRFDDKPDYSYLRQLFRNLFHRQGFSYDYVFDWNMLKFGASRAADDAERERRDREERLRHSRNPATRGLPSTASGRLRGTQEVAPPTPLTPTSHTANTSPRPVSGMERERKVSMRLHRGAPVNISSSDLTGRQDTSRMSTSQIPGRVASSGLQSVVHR
AAK1 (human), sequence (Q2M2I8 whole entry, looked up): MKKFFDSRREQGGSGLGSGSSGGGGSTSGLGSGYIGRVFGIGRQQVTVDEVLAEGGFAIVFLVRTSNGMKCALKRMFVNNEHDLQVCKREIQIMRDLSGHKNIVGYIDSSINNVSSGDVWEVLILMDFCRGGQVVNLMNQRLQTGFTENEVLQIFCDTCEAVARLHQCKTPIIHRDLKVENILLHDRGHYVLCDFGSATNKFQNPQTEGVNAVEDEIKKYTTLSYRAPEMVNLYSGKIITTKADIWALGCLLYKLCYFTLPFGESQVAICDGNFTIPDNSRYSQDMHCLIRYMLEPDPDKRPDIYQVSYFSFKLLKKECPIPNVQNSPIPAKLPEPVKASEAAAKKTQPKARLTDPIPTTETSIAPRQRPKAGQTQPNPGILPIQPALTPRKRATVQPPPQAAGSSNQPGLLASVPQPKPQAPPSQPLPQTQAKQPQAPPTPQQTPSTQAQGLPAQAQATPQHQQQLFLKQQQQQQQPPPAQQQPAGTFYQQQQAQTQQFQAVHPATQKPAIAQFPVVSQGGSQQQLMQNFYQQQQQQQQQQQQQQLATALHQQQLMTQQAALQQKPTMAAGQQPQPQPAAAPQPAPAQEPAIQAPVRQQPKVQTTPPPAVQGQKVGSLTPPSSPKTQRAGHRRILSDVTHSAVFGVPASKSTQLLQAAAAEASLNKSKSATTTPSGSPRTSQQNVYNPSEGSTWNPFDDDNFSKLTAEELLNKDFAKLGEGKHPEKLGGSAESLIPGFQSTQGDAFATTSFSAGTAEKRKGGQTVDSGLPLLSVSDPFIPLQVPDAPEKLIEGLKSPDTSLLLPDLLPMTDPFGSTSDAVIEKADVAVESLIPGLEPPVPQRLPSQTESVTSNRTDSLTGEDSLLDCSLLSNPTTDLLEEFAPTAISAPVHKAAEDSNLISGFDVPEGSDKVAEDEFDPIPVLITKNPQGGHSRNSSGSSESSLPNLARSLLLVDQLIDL

COc1ccc(-c2ccc3c(N4CCOCC4)nc(N4C[C@@H](C)O[C@@H](C)C4)nc3n2)cc1CO
per cent of control ([1]; compound 1.0 µM): 112%
per cent of control ([1]; compound 10.0 µM): 109%
per cent of control ([2]; compound 1.0 µM): 69%
per cent of control ([2]; compound 10.0 µM): 104%
per cent of control ([3]; compound 1.0 µM): 76%
per cent of control ([3]; compound 10.0 µM): 94%
kinase still bound, per cent of control [4]: 93%
kinase still bound, per cent of control [5]: 98%
kinase still bound, per cent of control [6]: 100%
kinase still bound, per cent of control [7]: 86%
kinase still bound, per cent of control [8]: 100%
per cent of control [9]: 77%
per cent of control [10]: 70%
kinase still bound, per cent of control [11]: 99%
kinase still bound, per cent of control [12]: 62%
kinase still bound, per cent of control [13]: 85%
kinase still bound, per cent of control [14]: 88%
kinase still bound, per cent of control [15]: 94%
kinase still bound, per cent of control [16]: 80%
kinase still bound, per cent of control [17]: 100%
kinase still bound, per cent of control [18]: 58%
kinase still bound, per cent of control [19]: 99%
kinase still bound, per cent of control [20]: 96%
kinase still bound, per cent of control [21]: 100%
kinase still bound, per cent of control [22]: 88%
kinase still bound, per cent of control [23]: 100%
kinase still bound, per cent of control [24]: 98%
kinase still bound, per cent of control [25]: 100%
kinase still bound, per cent of control [26]: 100%
kinase still bound, per cent of control [27]: 72%
kinase still bound, per cent of control [28]: 76%
kinase still bound, per cent of control [29]: 100%
kinase still bound, per cent of control [30]: 79%
kinase still bound, per cent of control [31]: 91%
kinase still bound, per cent of control [32]: 100%
kinase still bound, per cent of control [33]: 100%
kinase still bound, per cent of control [34]: 98%
kinase still bound, per cent of control [35]: 55%
kinase still bound, per cent of control [36]: 95%
kinase still bound, per cent of control [37]: 100%
kinase still bound, per cent of control [38]: 100%
kinase still bound, per cent of control [39]: 94%
kinase still bound, per cent of control [40]: 100%
